Test results: ChEMBL document CHEMBL1201862, “PubChem BioAssay data set” (2004)
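Results reflect a 48-hour exposure of cells in 96-well plates to compound at five concentrations. Abbreviation: GI50, concentration required for 50% inhibition of growth.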 The source made the active and inactive calls. No stated cut-off is given here; in the data, active = GI50 up to about 1.1 µM and inactive = higher.

Key:
Assay in all cases: NCI tumour cell line growth inhibition, 48 h
SF-539 = system: SF-539
SK-OV-3 = system: SK-OV-3
UO-31 = system: UO-31
SW-620 = system: SW-620
UACC-257 = system: UACC-257
SN12C = system: SN12C
CCRF-CEM = system: CCRF-CEM
HOP-62 = system: HOP-62
OVCAR-5 = system: OVCAR-5
786-0 = system: 786-0
HOP-92 = system: HOP-92
SK-MEL-5 = system: SK-MEL-5
HCC 2998 = system: HCC 2998
IGROV-1 = system: IGROV-1
EKVX = system: EKVX
SF-295 = system: SF-295
TK-10 = system: TK-10
U-251 = system: U-251
UACC-62 = system: UACC-62
PC-3 = system: PC-3

Measured: GI50

Fc1ccc2c3c([nH]c2c1)CCNC3
inactive: SF-539 > 100 µM | SK-OV-3 > 100 µM | UO-31 31.8 µM | SW-620 > 100 µM | UACC-257 > 100 µM | SN12C > 100 µM | CCRF-CEM > 100 µM | HOP-62 > 100 µM | OVCAR-5 > 100 µM | 786-0 > 100 µM | HOP-92 29.5 µM | SK-MEL-5 > 100 µM | HCC 2998 76 µM | IGROV-1 > 100 µM | EKVX > 100 µM | SF-295 67.8 µM | TK-10 > 100 µM | U-251 > 100 µM | UACC-62 > 100 µM

Cc1cc2c(=O)cc(-c3ccc(C(=O)O)cc3)oc2c(C(N)=O)c1C
inactive: SF-539 > 100 µM | SK-OV-3 > 100 µM | UO-31 > 100 µM | SW-620 > 100 µM | UACC-257 > 100 µM | SN12C > 100 µM | CCRF-CEM > 100 µM | HOP-62 > 100 µM | OVCAR-5 > 100 µM | 786-0 > 100 µM | HOP-92 > 100 µM | SK-MEL-5 > 100 µM | HCC 2998 > 100 µM | IGROV-1 > 100 µM | EKVX > 100 µM | SF-295 > 100 µM | TK-10 > 100 µM | U-251 > 100 µM | UACC-62 > 100 µM

O=C(c1cc(O)ccc1O)c1ccccc1C(Cl)(Cl)Cl
inactive: SF-539 > 100 µM | SK-OV-3 > 100 µM | UO-31 41.9 µM | SW-620 > 100 µM | UACC-257 39 µM | SN12C > 100 µM | CCRF-CEM 61.5 µM | HOP-62 > 100 µM | OVCAR-5 > 100 µM | 786-0 > 100 µM | HOP-92 38.8 µM | SK-MEL-5 35.6 µM | HCC 2998 > 100 µM | IGROV-1 > 100 µM | EKVX 75.5 µM | SF-295 55.7 µM | TK-10 > 100 µM | U-251 > 100 µM | UACC-62 71.6 µM

C[N+]12C=CC=C1C(N1CCCC1)c1scc(-c3ccccc3)c12 (centres undefined)
inactive: SK-OV-3 > 100 µM | UO-31 > 100 µM | SW-620 93.3 µM | SN12C 5.26 µM | CCRF-CEM 22.4 µM | HOP-62 41.7 µM | OVCAR-5 64.1 µM | 786-0 47.4 µM | SK-MEL-5 11.9 µM | PC-3 17.1 µM | IGROV-1 4.99 µM | EKVX 14.5 µM | SF-295 44.3 µM | U-251 5.92 µM | UACC-62 21 µM

Cc1cccc(C)c1NC(=O)C(=O)C1C(=O)NC(=O)NC1=O
inactive: SF-539 > 100 µM | SK-OV-3 > 100 µM | UO-31 > 100 µM | SW-620 > 100 µM | UACC-257 > 100 µM | SN12C > 100 µM | CCRF-CEM > 100 µM | HOP-62 > 100 µM | OVCAR-5 > 100 µM | 786-0 > 100 µM | HOP-92 > 100 µM | SK-MEL-5 > 100 µM | HCC 2998 > 100 µM | IGROV-1 > 100 µM | EKVX > 100 µM | SF-295 > 100 µM | TK-10 > 100 µM | U-251 > 100 µM | UACC-62 > 100 µM

COC(=O)CN1C(=O)C2(C(=O)OC)OC1(c1ccc([N+](=O)[O-])cc1)C1C(=O)N(c3ccccc3)C(=O)C12 (centres undefined)
inactive: SF-539 > 100 µM | SK-OV-3 > 100 µM | UO-31 > 100 µM | SW-620 > 100 µM | UACC-257 > 100 µM | SN12C > 100 µM | CCRF-CEM > 100 µM | HOP-62 > 100 µM | OVCAR-5 > 100 µM | 786-0 > 100 µM | SK-MEL-5 > 100 µM | PC-3 > 100 µM | IGROV-1 > 100 µM | EKVX > 100 µM | SF-295 > 100 µM | TK-10 > 100 µM | U-251 > 100 µM | UACC-62 > 100 µM
